ChEMBL document CHEMBL1159329, “Microbial transformations of isosteviol” (2002)

Test system: Rattus norvegicus
Assay: Antihypertensive activity in deoxy-corticosterone acetate-induced Sprague-Dawley rat assessed as reduction of blood pressure at 4.8 mg/kg, iv
Assay type: functional

SMILES	Activity [mmHg]
C[C@@]12CC[C@@H]3[C@@](CC[C@H]4[C@@]3(C)CCC[C@@]4(C)C(=O)O)(CC1=O)C2 [ISOSTEVIOL]	12
C[C@@]12CC[C@]3(O)[C@@](CC[C@@H]4[C@](C)(C(=O)O)CCC[C@]43C)(CC1=O)C2	7
